Assay [1] concerns Rattus norvegicus. Briefly: Hypoglycemic activity in STZ-nicotinamide Wistar rat model of diabetes at 50 mg/kg administered intragastrically as single dose measured after 7 hrs relative to control. The following applies: route intragastric. It counts as functional.
Assay [2] has as its system Rattus norvegicus. Briefly: Hypoglycemic activity in STZ-nicotinamide Wistar rat model of diabetes at 50 mg/kg administered intragastrically as single dose. It counts as functional, organism-based. Further details: dose 50 mg/kg. The following applies: TDE = time-dependent effect.

As to `Cc1c(C(=O)NN2CCCCC2)nn(-c2ccc(Cl)cc2Cl)c1-c1ccccc1`, the Activity with Rattus norvegicus [1] amounted to 1.08%. For `Cc1c(C(=O)NN2CCCCC2)nn(-c2ccc(C(F)(F)F)cc2)c1-c1ccc(Br)cc1`, the Activity in the assay on Rattus norvegicus [1] is on record as -2.4%. As to `Cc1c(C(=O)NN2CCCCC2)nn(-c2ccc(C(F)(F)F)cc2)c1-c1ccc(Cl)cc1`, the Activity in the assay on Rattus norvegicus [1] was found to be 27.3%. For `COc1ccc(Cl)cc1C(=O)NCCc1ccc(S(=O)(=O)NC(=O)NC2CCCCC2)cc1` [GLYBURIDE], the Activity in the assay with Rattus norvegicus [1] was determined as 38%. For `Cc1c(C(=O)NN2CCCCC2)nn(-c2ccc(F)cc2F)c1-c1ccc(F)cc1`, the Activity entry in the assay with Rattus norvegicus [2] is “tde”; in the assay with Rattus norvegicus [1], 49.4%.

For `Cc1c(C(=O)NN2CCCCC2)nn(-c2ccc(F)cc2F)c1-c1ccc(C(F)(F)F)cc1`, in the assay on Rattus norvegicus [1], the Activity came out at 54.2%. Regarding `Cc1c(C(=O)NN2CCCCC2)nn(-c2ccnc3cc(Cl)ccc23)c1-c1ccc(F)cc1`, the Activity with Rattus norvegicus [1] is 22.4%. Same read-out and setting: for `Cc1c(C(=O)NN2CCCCC2)nn(-c2ccccc2)c1-c1ccccc1` the value was 37.2%. As for `Cc1c(C(=O)NN2CCCCC2)nn(-c2ccc(Cl)c(Cl)c2)c1-c1ccc(Cl)cc1`, the Activity entry in the assay on Rattus norvegicus [2] is “tde”; with Rattus norvegicus [1], 54.7%. The matching figures for `Cc1c(C(=O)NN2CCCCC2)nn(-c2ccc(F)c(Cl)c2)c1-c1ccc(F)cc1`: “tde” and 58.7%. In the case of `Cc1c(C(=O)NN2CCCCC2)nn(-c2ccc(F)c(Cl)c2)c1-c1ccc(Cl)cc1`, in the assay on Rattus norvegicus [1], the Activity turned out to be 33.6%. Regarding `Cc1c(C(=O)NN2CCCCC2)nn(-c2ccc(Cl)cc2Cl)c1-c1ccc(C(F)(F)F)cc1`, the Activity in the assay with Rattus norvegicus [1] is recorded as 43.9%. Take `Cc1c(C(=O)NN2CCCCC2)nn(-c2ccnc3cc(Cl)ccc23)c1-c1ccc(Cl)cc1`: the Activity with Rattus norvegicus [1] amounted to 34.2%.

In the case of `Cc1c(C(=O)NN2CCCCC2)nn(-c2ccc(Cl)cc2Cl)c1-c1ccc(Cl)cc1` [RIMONABANT], the Activity in the assay with Rattus norvegicus [1] stood at 25.4%.

Values taken from ChEMBL document CHEMBL3102729, “Synthesis, hypoglycemic activity and molecular modeling studies of pyrazole-3-carbohydrazides designed by a CoMFA model” (2013).
